Measured values as given in PubChem BioAssay (NCI).
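Where inhibition never reached the appropriate level, the endpoint shown equals the highest concentration tested. Otherwise, values were interpolated linearly from a five-concentration, 48-hour dose response in 96-well plates. TGI marks complete inhibition of growth.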

Columns and labels:
Assay in all cases: DTP human tumour cell line panel, 48 h
CAKI-1 renal = system: CAKI-1 renal
UO-31 renal = system: UO-31 renal
786-0 renal = system: 786-0 renal
SN12C renal = system: SN12C renal
SW-620 colon = system: SW-620 colon
DU-145 prostate = system: DU-145 prostate
MDA-MB-435 = system: MDA-MB-435
SK-MEL-2 melanoma = system: SK-MEL-2 melanoma
KM12 colon = system: KM12 colon
EKVX NSCLC = system: EKVX NSCLC
K-562 leukemia = system: K-562 leukemia
OVCAR-8 ovarian = system: OVCAR-8 ovarian
MDA-N = system: MDA-N
U251 CNS = system: U251 CNS
PC-3 prostate = system: PC-3 prostate
NCI/ADR-RES ovarian = system: NCI/ADR-RES ovarian
MDA-MB-231 breast = system: MDA-MB-231 breast
COLO 205 colon = system: COLO 205 colon
HCT-15 colon = system: HCT-15 colon
UACC-62 melanoma = system: UACC-62 melanoma
HCT-116 colon = system: HCT-116 colon
MOLT-4 leukemia = system: MOLT-4 leukemia
NCI-H522 lung = system: NCI-H522 lung
SNB-19 CNS = system: SNB-19 CNS
HT29 colon = system: HT29 colon
ACHN renal = system: ACHN renal
HOP-62 NSCLC = system: HOP-62 NSCLC
NCI-H460 lung = system: NCI-H460 lung
RXF 393 renal = system: RXF 393 renal
NCI-H226 lung = system: NCI-H226 lung
UACC-257 melanoma = system: UACC-257 melanoma
HS 578T breast = system: HS 578T breast
IGROV1 ovarian = system: IGROV1 ovarian
MCF7 breast = system: MCF7 breast
OVCAR-3 ovarian = system: OVCAR-3 ovarian
HL-60(TB) leukemia = system: HL-60(TB) leukemia
T-47D breast = system: T-47D breast
M14 melanoma = system: M14 melanoma
SF-295 CNS = system: SF-295 CNS
HCC-2998 colon = system: HCC-2998 colon
SF-268 CNS = system: SF-268 CNS
TK-10 renal = system: TK-10 renal
A549 NSCLC = system: A549 NSCLC
SR leukemia = system: SR leukemia
OVCAR-4 ovarian = system: OVCAR-4 ovarian
LOX IMVI melanoma = system: LOX IMVI melanoma
NCI-H23 lung = system: NCI-H23 lung
SK-MEL-28 melanoma = system: SK-MEL-28 melanoma
OVCAR-5 ovarian = system: OVCAR-5 ovarian
RPMI-8226 leukemia = system: RPMI-8226 leukemia
SK-MEL-5 melanoma = system: SK-MEL-5 melanoma
BT-549 breast = system: BT-549 breast
CCRF-CEM leukemia = system: CCRF-CEM leukemia
SNB-75 CNS = system: SNB-75 CNS
A498 renal = system: A498 renal
SK-OV-3 ovarian = system: SK-OV-3 ovarian
MALME-3M melanoma = system: MALME-3M melanoma
SF-539 CNS = system: SF-539 CNS
HOP-92 NSCLC = system: HOP-92 NSCLC

Compound: O=[N+]([O-])c1ccccc1N=Nc1c(O)[nH]c2cccc(C(F)(F)F)c12
- TGI (CAKI-1 renal): > 100 µM
- TGI (UO-31 renal): > 100 µM
- TGI (786-0 renal): 60 µM
- TGI (SN12C renal): 73.8 µM
- TGI (SW-620 colon): > 100 µM
- TGI (DU-145 prostate): > 100 µM
- TGI (MDA-MB-435): 40.7 µM
- TGI (SK-MEL-2 melanoma): > 100 µM
- TGI (KM12 colon): > 100 µM
- TGI (EKVX NSCLC): > 100 µM
- TGI (K-562 leukemia): > 100 µM
- TGI (OVCAR-8 ovarian): > 100 µM
- TGI (MDA-N): 33.3 µM
- TGI (U251 CNS): > 100 µM
- TGI (PC-3 prostate): > 100 µM
- TGI (NCI/ADR-RES ovarian): > 100 µM
- TGI (MDA-MB-231 breast): 91.3 µM
- TGI (COLO 205 colon): > 100 µM
- TGI (HCT-15 colon): > 100 µM
- TGI (UACC-62 melanoma): > 100 µM
- TGI (HCT-116 colon): > 100 µM
- TGI (MOLT-4 leukemia): > 100 µM
- TGI (NCI-H522 lung): 69.3 µM
- TGI (SNB-19 CNS): > 100 µM
- TGI (HT29 colon): > 100 µM
- TGI (ACHN renal): 40.1 µM
- TGI (HOP-62 NSCLC): 82.8 µM
- TGI (NCI-H460 lung): > 100 µM
- TGI (RXF 393 renal): > 100 µM
- TGI (NCI-H226 lung): > 100 µM
- TGI (UACC-257 melanoma): 34.5 µM
- TGI (HS 578T breast): > 100 µM
- TGI (IGROV1 ovarian): 57.7 µM
- TGI (MCF7 breast): > 100 µM
- TGI (OVCAR-3 ovarian): 62.2 µM
- TGI (HL-60(TB) leukemia): > 100 µM
- TGI (T-47D breast): > 100 µM
- TGI (M14 melanoma): > 100 µM
- TGI (SF-295 CNS): > 100 µM
- TGI (HCC-2998 colon): > 100 µM
- TGI (SF-268 CNS): > 100 µM
- TGI (TK-10 renal): > 100 µM
- TGI (A549 NSCLC): > 100 µM
- TGI (SR leukemia): 15.7 µM
- TGI (OVCAR-4 ovarian): 52 µM
- TGI (LOX IMVI melanoma): > 100 µM
- TGI (NCI-H23 lung): 88 µM
- TGI (SK-MEL-28 melanoma): > 100 µM
- TGI (OVCAR-5 ovarian): > 100 µM
- TGI (RPMI-8226 leukemia): > 100 µM
- TGI (SK-MEL-5 melanoma): > 100 µM
- TGI (BT-549 breast): > 100 µM
- TGI (CCRF-CEM leukemia): > 100 µM
- TGI (SNB-75 CNS): > 100 µM
- TGI (A498 renal): > 100 µM
- TGI (SK-OV-3 ovarian): > 100 µM

Compound: CN(C)CC(O)c1ccc(Cl)c2ccccc12 (stereo not drawn)
- TGI (MALME-3M melanoma): 86 µM
- TGI (CAKI-1 renal): > 96.6 µM
- TGI (UO-31 renal): > 62.2 µM
- TGI (786-0 renal): > 100 µM
- TGI (SN12C renal): > 100 µM
- TGI (SW-620 colon): > 100 µM
- TGI (DU-145 prostate): > 100 µM
- TGI (SF-539 CNS): > 100 µM
- TGI (MDA-MB-435): 61.2 µM
- TGI (SK-MEL-2 melanoma): 39.7 µM
- TGI (KM12 colon): > 100 µM
- TGI (EKVX NSCLC): > 100 µM
- TGI (OVCAR-8 ovarian): > 100 µM
- TGI (MDA-N): > 63.8 µM
- TGI (U251 CNS): > 90.6 µM
- TGI (PC-3 prostate): > 72.3 µM
- TGI (NCI/ADR-RES ovarian): > 100 µM
- TGI (MDA-MB-231 breast): > 73.4 µM
- TGI (COLO 205 colon): 49.2 µM
- TGI (HCT-15 colon): > 100 µM
- TGI (UACC-62 melanoma): 34 µM
- TGI (HCT-116 colon): > 100 µM
- TGI (MOLT-4 leukemia): 55.8 µM
- TGI (NCI-H522 lung): > 100 µM
- TGI (HOP-92 NSCLC): > 68.2 µM
- TGI (SNB-19 CNS): > 100 µM
- TGI (HT29 colon): > 100 µM
- TGI (ACHN renal): > 100 µM
- TGI (HOP-62 NSCLC): > 100 µM
- TGI (NCI-H460 lung): > 100 µM
- TGI (RXF 393 renal): > 64.9 µM
- TGI (NCI-H226 lung): > 57 µM
- TGI (UACC-257 melanoma): 38.2 µM
- TGI (HS 578T breast): > 100 µM
- TGI (IGROV1 ovarian): > 85.7 µM
- TGI (MCF7 breast): > 81.8 µM
- TGI (OVCAR-3 ovarian): > 100 µM
- TGI (HL-60(TB) leukemia): > 78 µM
- TGI (T-47D breast): 84.4 µM
- TGI (M14 melanoma): 33 µM
- TGI (SF-295 CNS): > 63.6 µM
- TGI (HCC-2998 colon): 29.9 µM
- TGI (SF-268 CNS): > 100 µM
- TGI (TK-10 renal): > 94 µM
- TGI (A549 NSCLC): > 100 µM
- TGI (OVCAR-4 ovarian): > 100 µM
- TGI (LOX IMVI melanoma): > 66.6 µM
- TGI (NCI-H23 lung): > 100 µM
- TGI (SK-MEL-28 melanoma): 36.3 µM
- TGI (OVCAR-5 ovarian): > 100 µM
- TGI (RPMI-8226 leukemia): 11 µM
- TGI (SK-MEL-5 melanoma): 31.4 µM
- TGI (BT-549 breast): > 100 µM
- TGI (CCRF-CEM leukemia): 53.8 µM
- TGI (SNB-75 CNS): > 89.1 µM
- TGI (A498 renal): 45.9 µM
- TGI (SK-OV-3 ovarian): > 100 µM
